Tests used:
[1] = test system: human xenograft tumor models; assay: MYXV replication in human xenograft tumor models; type: in vivo; conditions: human xenograft tumor models in NSG mice
Colo205 cells = type: cell-based, human
MDA-MB435 cells = type: cell-based, human
PANC-1 cells [2] = type: cell-based, human
2D and 3D cell cultures = assay: MYXV replication in 2D and 3D cell cultures; type: cell-based
PANC-1 cells [3] = type: cell-based, human; remark: listed apart in the source

O=C(/C=C\n1cnc(-c2cc(C(F)(F)F)cc(C(F)(F)F)c2)n1)NNc1cnccn1 [selinexor]
significantly enhanced: MYXV replication [1] | MYXV gene expression and replication (Colo205 cells) | MYXV gene expression and replication (MDA-MB435 cells) | MYXV gene expression and replication (PANC-1 cells [2]) | MYXV replication (2D and 3D cell cultures) | replication of vMyx-M11L-KO (progeny virus) (PANC-1 cells [3]) | replication of vMyx-hLIGHT (progeny virus) (PANC-1 cells [3])
